From patent US9044013B2, “Glyoxime derivative and pest control agent” (KUMIAI CHEMICAL INDUSTRY CO., LTD., priority 2011, dated 2015)

Tested on: Nilaparvata lugens Stál (brown rice planthopper)
Test: Insecticidal action test for Nilaparvata lugens Stál (brown rice planthopper) (immersion test)
Type: in vivo
Settings: 144 h, 500 ppm active ingredient (wettable powder diluted with water), sprouting unhulled rice immersed, 10 2-age larvae, 25° C., after 6 days, no repetition, read-out: insect mortality
Method: Insecticidal action test for Nilaparvata lugens Stál (Brown Rice Planthopper) (Immersion Test)
A wettable powder prepared based on Formulation Example 2 was diluted with water so that the concentration of active ingredient became 500 ppm. In the diluted liquid was immersed sprouting unhulled rice. The immersed rice was placed in a plastic cup of 60 ml. Into the plastic cup were released 10 2-age larvae of Nilaparvata lugens Stál (brown rice planthopper). The cup was covered with a cap and placed in a thermostat of 25° C. After 6 days, the number of living insects was counted and the mortality of insect was calculated using the calculation formula of Mathematical Expression 1. This test was conducted with no repetition. Insect mortality(%)=[1−(number of living insects)/(number of tested insects)]×100 [Mathematical Expression 1]
The compound Nos. of the compounds which gave an insect mortality of 90% or higher in the above test, are shown below.

SMILES	mortality at 500 ppm [%]
CC(C)ON=C(N)C(C#N)=NOC(C)C [1-096, 3-amino-2,3-bis(isopropoxyimino)propionitrile]	≥ 90
CCCON=C(N)C(C#N)=NOCCC [1-072, 3-Amino-2,3-Bis(Propoxyimino)Propionitrile]	≥ 90
CC(C)ON=C(C#N)C(N)=NO [1-004, 3-amino-3-hydroxyimino-2-isopropoxyiminopropionitrile]	≥ 90
CCCON=C(N)C(C#N)=NOC(C)C [1-073, 3-amino-2-isopropoxyimino-3-propoxyiminopropionitrile]	≥ 90
